Measurements from US5494907A, “11-β substituted-19-nor steroids” (Roussel UCLAF, priority 1993, dated 1996).

What was measured:
[1] = target: T1, hER (recombinant human estrogen receptor) (Homo sapiens, UniProt P03372); assay: Relative bond affinity (RBA) on recombinant human estrogen receptor, displacement of tritiated estradiol; format: binding; conditions: for RBA hER: Estradiol = 100, 0° C., 24 hours; for affinity for the estrogen receptor (in words): conclusion in words
T1 construct: made in house; host or cells: SF9 insect cells, recombinant baculovirus
T1 sequence (P03372 1-595): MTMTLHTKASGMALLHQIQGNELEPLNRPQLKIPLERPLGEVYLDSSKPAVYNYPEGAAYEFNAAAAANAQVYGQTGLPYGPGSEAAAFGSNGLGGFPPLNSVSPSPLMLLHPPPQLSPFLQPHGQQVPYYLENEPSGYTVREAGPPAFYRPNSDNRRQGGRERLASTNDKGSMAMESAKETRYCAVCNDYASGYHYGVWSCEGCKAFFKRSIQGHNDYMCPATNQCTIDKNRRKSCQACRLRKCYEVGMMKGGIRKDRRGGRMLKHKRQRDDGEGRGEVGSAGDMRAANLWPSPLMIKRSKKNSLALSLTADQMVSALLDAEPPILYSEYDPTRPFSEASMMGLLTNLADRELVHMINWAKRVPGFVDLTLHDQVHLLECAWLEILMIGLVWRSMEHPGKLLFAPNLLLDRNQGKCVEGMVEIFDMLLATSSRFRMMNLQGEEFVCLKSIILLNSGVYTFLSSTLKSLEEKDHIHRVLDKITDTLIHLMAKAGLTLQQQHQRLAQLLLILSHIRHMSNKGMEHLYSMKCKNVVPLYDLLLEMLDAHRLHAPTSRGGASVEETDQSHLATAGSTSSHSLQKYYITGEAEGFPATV
Excerpt: 1--Activity on the hormonal receptors using either the natural hormonal receptor of a rat (AR), or the recombinant human receptor (PR, GR and ER).
A supernatant of SF9 cells containing the recombinant human estrogen receptor was obtained by the process described above for the progesterone receptor using the cDNA fragment described in the HEGO expression vector by TORA et al. (EMBO Journal (1989), Vol. 8 N° 7, pp. 1981-1986), containing the region coding for the human estrogen receptor of "wild type" with a glycine in position 400. The cells were lysed in the lysis buffer (1). The supernatant was incubated at 0° C. for 24 hours with a constant concentration (T) of tritiated estradiol in the presence of increasing concentrations either of unlabelled estradiol (0-1000×10^-9 M), or of the unlabelled product under test (1 to 25000×10^-9 M). The concentration of bound tritiated estradiol (B) was then measured in each incubate by the technique of adsorption with carbon dextran.
Calculation of the relative bond affinity (RBA).
The following 2 curves were traced: percentage of bound tritiated hormone B/BO as a function of the logarithm of the concentration of unlabelled reference hormone or as a function of the logarithm of the concentration of the unlabelled product under test.
The straight line of the following equation was determined:
BO=Concentration of bound tritiated hormone in the absence of any unlabelled product,
B=Concentration of bound tritiated hormone in the presence of a concentration X of unlabelled product,
B min=Concentration of bound tritiated hormone in the presence of a large excess of cold reference hormone (500 nM). The intersections of the straight line I50 and the curves allowed the evaluation of the concentrations of unlabelled reference hormone (CH) and of the unlabelled product under test (CX) which inhibited by 50% the specific binding of the tritiated hormone on the receptor.
The relative bond affinity (RBA) of the product under test was determined by the equation:
The RBA's of the reference products estradiol, progesterone, dexamethasone and testosterone were arbitrarily taken to be equal to 100.

[2] = tested on: MCF-7 human breast tumour cells; assay: Anti-proliferative activity on the growth of MCF-7 human breast tumour cells (DNA dosage); format: cell-based; conditions: MCF7, stimulated by EGF + PDGF, D7 to D9, read-out: IC50, concentration which inhibited by 50% the growth of the MCF-7 cells
Procedure: 2--Anti-proliferative activity on the growth of MCF-7 human breast tumour cells
The MCF-7 lines were maintained in culture in a base medium (according to 1) containing 5% of foetal calf serum at 37° C. under a humid atmosphere containing 5% CO2. The subconfluent cells were collected by trypsination (0.1% trypsin, 0.02% EDTA) and then rinsed by gentle centrifuging. A sample of the cells in suspension was counted with a Malassez cell.
The cells were resuspended in a base medium without phenol red in the presence of 5% of steroid-free FCS, and stimulated either by 0.1 nM of estradiol, or by 10 ng/ml of EGF+1 ng/ml of PDGF. The cells were seeded at a rate of 50,000 cells per well in multi-well plates (24 wells of 2.5 cm^2). Twenty-four hours after the seeding (DO), the product to be tested was added to the mixture in ethanolic solution (final concentration of ethanol: 0.1%), at a concentration of 10^-11 to 10^-6 M, the control wells receiving the same concentration of ethanol. The media containing the products were renewed every 48 hours. At the end of the experiment (D7 to D9), the mixture was extracted and the cells were immediately fixed with 250 microliters of methanol to dose the DNA. The anti-proliferative activity of the products was evaluated by their capacity to inhibit the increase of DNA relative to the control.
The DNA was dosed by a fluorimetric method using DABA (3,5diaminobenzoic acid) (according to 2): 200 microliters of DABA were added to each well and the plates were incubated for 45 minutes at 56° C. Then, 2 ml of 1N HCl were added and the fluorescence was measured using a fluorimeter (excitation wavelength: 408 nm, emission wavelength: 510 nm). The quantity of DNA per well was evaluated relative to a reference scale obtained by treating a calf thymus DNA standard under the same conditions.
The concentration in nM which inhibited by 50% the growth of the MCF-7 cells stimulated by EGF +PDGF (IC50) was determined in the manner indicated above.

| Compound | RBA hER [1] | IC50 [2] [nM] | affinity for the estrogen receptor (in words) [1] |
| --- | --- | --- | --- |
| CCCCN(C)S(=O)(=O)CCCCCOc1ccc([C@H]2C[C@]3(C)[C@@H](O)CC[C@H]3[C@@H]3CCc4cc(O)ccc4[C@H]32)cc1 [Example 7, N-butyl-5-[4-(Δ1,3,5(10)-estratrien-3,17β-diol-11β-yl)phenoxy]-N-methyl-pentanesulfonamide] | 4 | 0.015 |  |
| CN(CC(F)(F)C(F)(F)C(F)(F)F)S(=O)(=O)CCCCCOc1ccc([C@H]2C[C@]3(C)[C@@H](O)CC[C@H]3[C@@H]3CCc4cc(O)ccc4[C@H]32)cc1 [Example 8, 5-[4-(Δ1,3,5(10)-estratrien-3,17β-diol-11βyl)-Phenoxy]-N-(2,2,3,3,4,4,4-heptafluorobutyl)-N-methyl-pentanesulfonamide] | 19 | 0.026 | marked affinity |
| CCCCNS(=O)(=O)CCCCCOc1ccc([C@H]2C[C@]3(C)[C@@H](O)CC[C@H]3[C@@H]3CCc4cc(O)ccc4[C@H]32)cc1 [Example 2, N-butyl-5-[4-(Δ1,3,5(10)-estratrien-3,17β-diol-11β-yl)phenoxy]-pentanesulfonamide] | 21 | 0.016 | marked affinity |
